Experimental data: BindingDB's records for doi:10.1021/jm00008a008 (Arris Pharmaceutical, 1995)

Experiment: Tested for activity against 5-hydroxytryptamine 1A receptor from bovine hippocampus

SMILES | Ki
COc1cccc2c1C[C@H]1CCN(Cc3ccccc3)[C@H]1C2 [1-Benzyl-5-methoxy-2,3,3a,4,9,9a-hexahydro-1H-benzo[f]indole] | 1000 nM
COc1cccc2c1C[C@H]1CCN[C@H]1C2 [5-Methoxy-2,3,3a,4,9,9a-hexahydro-1H-benzo[f]indole] | 1000 nM
CCCN1[C@H](C)C[C@H]2c3c(O)cccc3CC[C@H]21 [(2R,3aR,9bS)-2-Methyl-3-propyl-2,3,3a,4,5,9b-hexahydro-1H-benzo[e]indol-9-ol] | 16 nM
COc1cccc2c1CC[C@@H]1[C@H]2CCN1CC1CC1 [(3aR,9bS)-3-Cyclopropylmethyl-6-methoxy-2,3,3a,4,5,9b-hexahydro-1H-benzo[e]indole] | 1000 nM
CCCN1CC[C@H]2c3c(cccc3OC)CC[C@@H]21 [(3aS,9bS)-9-Methoxy-3-propyl-2,3,3a,4,5,9b-hexahydro-1H-benzo[e]indole] | 0.2 nM
